Test results as given in patent US20150299125A1, “PRODRUG BIPYRIDYLAMINOPYRIDINES AS SYK INHIBITORS” (MERCK SHARP & DOHME CORP., priority 2012, published 2015).

Biological target: T1, recombinant human GST-Syk (Homo sapiens, UniProt P43405)
T1 construct: purchased Carna Biosciences 08-176
Assay: Homogeneous Time-Resolved Fluorescence (HTRF) assay for the recombinant human Syk enzyme
Type: biochemical
Conditions: recombinant human GST-Syk 5 pM, ATP 25 μM, read-out: IC50
Experimental: Syk inhibition of the compounds of Formula (I) may be determined using the following assay protocol: Homogeneous Time-Resolved Fluorescence (HTRF) Assay for the Recombinant Human Syk Enzyme: A recombinant GST-hSyk fusion protein was used to measure potency of compounds to inhibit human Syk activity. […] Final volume of the reaction was 10 μL. Phosphorylation of the peptide was allowed to proceed for 45' at room temperature. To quench the reaction and detect the phosphorylated product, 2 nM of a Europium-anti-phosphotyrosine antibody (Perkin Elmer #AD0161) and 70 nM SA-APC (Perkin-Elmer #CR130-100) were added together in 15 mM Tris pH 7.5, 40 mM EDTA, 0.01% tween 20. Final volume of the quenching solution was 10 μL. The resulting HTRF signal was measured after 30 minutes on a EnVision (Perkin-Elmer) reader using a time-resolved fluorescence protocol.

Row | Compound | IC50 [nM]
1 | Cc1cc(Nc2cc(C(F)F)ccn2)nc(-c2ccc([C@](C)(O)[C@H]3CC[C@H](C(=O)OCC(C)(C)O)CC3)nc2)c1 [Example 1-1, 2-Hydroxy-2-methylpropyl trans-4-[(1R)-1-(6-{[4-(difluoromethyl)pyridin-2-yl]amino}-4-methyl-2,3′-bipyridin-6′-yl)-1-hydroxyethyl]cyclohexanecarboxylate] | 8.1
2 | Cc1cc(Nc2cc(C(F)F)ccn2)nc(-c2ccc([C@](C)(O)[C@H]3CC[C@H](C(=O)OC[C@@H](O)CO)CC3)nc2)c1 [Example 1-3, (2S)-2,3-Dihydroxypropyl trans-4-[(1R)-1-(6-{[4-(difluoromethyl)pyridin-2-yl]amino}-4-methyl-2,3′-bipyridin-6′-yl)-1-hydroxyethyl]cyclohexanecarboxylate] | 2.5
3 | Cc1cc(Nc2cc(C(F)F)ccn2)nc(-c2ccc([C@](C)(O)[C@H]3CC[C@H](C(=O)OC[C@H]4OC(O)[C@H](O)[C@@H](O)[C@@H]4O)CC3)nc2)c1 (stereo partly drawn) [Example 1-4, 6-O-({trans-4-[(1R)-1-(6-{[4-(difluoromethyl)pyridin-2-yl]amino}-4-methyl-2,3′-bipyridin-6′-yl)-1-hydroxyethyl]cyclohexyl}carbonyl)-D-glucopyranose] | 0.8
4 | Cc1cc(Nc2cc(C(F)F)ccn2)nc(-c2ccc([C@](C)(O)[C@H]3CC[C@H](C(=O)Oc4ccccc4)CC3)nc2)c1 [Example 1-6, Phenyl trans-4-[(1R)-1-(6-{[4-(difluoromethyl)pyridin-2-yl]amino}-4-methyl-2,3′-bipyridin-6′-yl)-1-hydroxyethyl]cyclohexanecarboxylate] | 9.7
5 | CSCCOC(=O)[C@H]1CC[C@H]([C@@](C)(O)c2ccc(-c3cc(C)cc(Nc4cc(C(F)F)ccn4)n3)cn2)CC1 [Example 1-7, 2-(methylsulfanyl)ethyl trans-4-[(1R)-1-(6-{[4-(difluoromethyl)pyridin-2-yl]amino}-4-methyl-2,3′-bipyridin-6′-yl)-1-hydroxyethyl] cyclohexanecarboxylate] | 18.2
6 | Cc1cc(Nc2cc(C(F)F)ccn2)nc(-c2ccc([C@](C)(O)[C@H]3CC[C@H](C(=O)OCC[N+](C)(C)C)CC3)nc2)c1 [Example 1-10, 2-[({trans-4-[(1R)-1-(6-{[4-(difluoromethyl)pyridin-2-yl]amino}-4-methyl-2,3′-bipyridin-6′-yl)-1-hydroxyethyl]cyclohexyl}carbonyl)oxy]-N,N,N-trimethylethanaminium] | 1.7
7 | COc1ccc(OC(=O)[C@H]2CC[C@H]([C@@](C)(O)c3ccc(-c4cc(C)cc(Nc5cc(C(F)F)ccn5)n4)cn3)CC2)cc1 [Example 1-28, 4-methoxyphenyl trans-4-[(1R)-1-(6-{[4-(difluoromethyl)pyridin-2-yl]amino}-4-methyl-2,3′-bipyridin-6′-yl)-1-hydroxyethyl] cyclohexanecarboxylate] | 7.2
8 | Cc1cc(Nc2cc(C(F)F)ccn2)nc(-c2ccc([C@](C)(O)[C@H]3CC[C@H](C(=O)OCOC(=O)OCCOCc4ccccc4)CC3)nc2)c1 [Example 2-3, ({[2-(benzyloxy)ethoxy]carbonyl}oxy) methyl trans-4-[(1R)-1-(6-{[4-(difluoromethyl)pyridin-2-yl]amino}-4-methyl-2,3′-bipyridin-6′-yl)-1-hydroxyethyl]cyclo hexanecarboxylate] | 6.2
9 | CCOCCOCCOCCOC(=O)OCOC(=O)[C@H]1CC[C@H]([C@@](C)(O)c2ccc(-c3cc(C)cc(Nc4cc(C(F)F)ccn4)n3)cn2)CC1 [Example 2-5, 3-oxo-2,4,7,10,13-pentaoxapentadec-1-yl trans-4-[(1R)-1-(6-{[4-(difluoromethyl)pyridin-2-yl]amino}-4-methyl-2,3′-bipyridin-6′-yl)-1-hydroxyethyl]cyclo hexanecarboxylate] | 7.5
10 | CCOCC(COCC)OC(=O)OCOC(=O)[C@H]1CC[C@H]([C@@](C)(O)c2ccc(-c3cc(C)cc(Nc4cc(C(F)F)ccn4)n3)cn2)CC1 [Example 2-8, ({[2-ethoxy-1-(ethoxymethyl)ethoxy]carbonyl}oxy) methyl trans-4-[(1R)-1-(6-{[4-(difluoromethyl)pyridin-2-yl]amino}-4-methyl-2,3′-bipyridin-6′-yl)-1-hydroxyethyl]cyclo hexanecarboxylate] | 22.8
11 | CSCCOC(=O)OCOC(=O)[C@H]1CC[C@H]([C@@](C)(O)c2ccc(-c3cc(C)cc(Nc4cc(C(F)F)ccn4)n3)cn2)CC1 [Example 2-10, ({[2-(methylsulfanyl)ethoxy]carbonyl}oxy) methyl trans-4-[(1R)-1-(6-{[4-(difluoromethyl)pyridin-2-yl]amino}-4-methyl-2,3′-bipyridin-6′-yl)-1-hydroxyethyl]cyclo hexanecarboxylate] | < 0.5

Further lines, results first:

Row | IC50 [nM] | Compound
12 | 19.1 | Cc1cc(Nc2cc(C(F)F)ccn2)nc(-c2ccc([C@](C)(O)[C@H]3CC[C@H](C(=O)OC(C)OC(=O)c4cnn(C)c4)CC3)nc2)c1 (single isomer, unassigned) [Example 3-2a]
13 | 22.4 | Cc1cc(Nc2cc(C(F)F)ccn2)nc(-c2ccc([C@](C)(O)[C@H]3CC[C@H](C(=O)OC(C)OC(=O)c4cnn(C)c4)CC3)nc2)c1 (single isomer, unassigned) [Example 3-2b]
14 | 12.9 | COCCN(C)C(=O)OC(C)OC(=O)[C@H]1CC[C@H]([C@@](C)(O)c2ccc(-c3cc(C)cc(Nc4cc(C(F)F)ccn4)n3)cn2)CC1 (single isomer, unassigned) [Example 4-1b]
15 | 0.6 | Cc1cc(Nc2cc(C(F)F)ccn2)nc(-c2ccc([C@](C)(O)[C@H]3CC[C@H](C(=O)OCOC(=O)OCC[S+](C)[O-])CC3)nc2)c1 (single isomer, unassigned) [Example 7-5]
16 | 1.5 | Cc1cc(Nc2cc(C(F)F)ccn2)nc(-c2ccc([C@](C)(O)[C@H]3CC[C@H](C(=O)OCOC(=O)OCCC(=O)N(C)C)CC3)nc2)c1 [Example 2-12, ({[3-(dimethylamino)-3-oxopropoxy]carbonyl}oxy)methyl trans-4-[(1R)-1-(6-{[4-(difluoromethyl)pyridin-2-yl]amino}-4-methyl-2,3′-bipyridin-6′-yl)-1-hydroxyethyl]cyclo hexanecarboxylate]
17 | 34.6 | Cc1cc(Nc2cc(C(F)F)ccn2)nc(-c2ccc([C@](C)(O)[C@H]3CC[C@H](C(=O)OCOC(=O)OCc4nccn4C)CC3)nc2)c1 [Example 2-13, ({[(1-methyl-1H-imidazol-2-yl)methoxy]carbonyl}oxy)methyl trans-4-[(1R)-1-(6-{[4-(difluoromethyl)pyridin-2-yl]amino}-4-methyl-2,3′-bipyridin-6′-yl)-1-hydroxyethyl]cyclo hexanecarboxylate]
18 | 32.9 | CCOCCOCCOC(=O)OC(C)OC(=O)[C@H]1CC[C@H]([C@@](C)(O)c2ccc(-c3cc(C)cc(Nc4cc(C(F)F)ccn4)n3)cn2)CC1 (stereo partly drawn) [Example 2-15, 1-methyl-3-oxo-2,4,7,10-tetraoxadodec-1-yl trans-4-[(1R)-1-(6-{[4-(difluoromethyl)pyridin-2-yl]amino}-4-methyl-2,3′-bipyridin-6′-yl)-1-hydroxyethyl]cyclo hexanecarboxylate]
